For one data set, the system named is MDA-MB-231. Kind of data set: Cell viability (CellTiter-Glo), 6-day compound treatment. Type of data set: cell-based, Human. As for the experimental part: (§1) The compound 18a was tested in 16 different cell lines. For 6-day compound treatment 1700 cells per well were plated in a 384-well plate (Corning #781098) and incubated overnight at 37° C./5% CO2. The following day, compounds in 10-fold dilutions were added to the plates and the plates were incubated for 6 days. Afterwards, 20 μL CellTiter-Glo reagent (Promega, #G7570) was added to each well outside of the incubator and the plates were read for luminescence on a Spark® multimode microplate reader (Tecan). Data was fit in GraphPad Prism 8 to a nonlinear regression curve to determine the IC50 of the compounds.

The next data set relates to SW-1271. Described as above. Type of data set: cell-based, Human. As for the experimental part: as §1
In the next data set the test system is NB-4. Kind of data set: Cell viability (CellTiter-Glo). Type of data set: cell-based, Human. To be noted: for IC50: Homo sapiens.
The next data set concerns SKOV-3. Kind of data set: Cell viability (CellTiter-Glo), 48 hrs. Type of data set: cell-based. The conditions noted are these: Homo sapiens, SK-OV-3, 48 h, read-out: SKOV-3 Viability 48 h IC50. A general note: ATP-based viability assays read luminescence as a measure of living cells.
The target in another data set is BIR3 domain of XIAP (Homo sapiens, UniProt P98170). Kind of data set: Fluorescence polarization assay. Format: binding. The conditions noted are these: SMAC-FITC probe, Ki calculated from IC50. A digest of the protocol: (§2)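 Competitive FP with 50 nM SMAC-FITC probe in 100 mM KH2PO4 pH 7.5, 50 μM ZnSO4, 1 mM TCEP; cIAP1 and XIAP at 800 nM, cIAP2 and ML-IAP at 1.5 μM. Compounds 30 μM to 1.5 nM in 3-fold steps; ex 485/em 535 nm. IC50 by nonlinear fit, converted to Ki via Nikolovska-Coleska equation.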
Sequence of BIR3 domain of XIAP (P98170 241-356 limits assumed): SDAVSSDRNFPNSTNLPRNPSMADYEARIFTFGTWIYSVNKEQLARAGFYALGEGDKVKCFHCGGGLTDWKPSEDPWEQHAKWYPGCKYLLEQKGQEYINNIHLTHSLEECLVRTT

In another data set the target is BIR3 domain of cIAP1 (Homo sapiens, UniProt Q13490). The experiment in a line: Fluorescence polarization assay. Type of data set: binding. To be noted: SMAC-FITC probe, Ki calculated from IC50. In short, it runs like this:
as §2

Another data set addresses BIR3 domain of cIAP2 (Homo sapiens, UniProt Q13489). The experiment in a line: Fluorescence polarization assay. Type of data set: binding. The conditions noted are these: SMAC-FITC probe, Ki calculated from IC50. In short, it runs like this: as §2
In another data set the target is T1, ML-IAP (Homo sapiens, UniProt Q96CA5).
T1 sequence (Q96CA5 1-298): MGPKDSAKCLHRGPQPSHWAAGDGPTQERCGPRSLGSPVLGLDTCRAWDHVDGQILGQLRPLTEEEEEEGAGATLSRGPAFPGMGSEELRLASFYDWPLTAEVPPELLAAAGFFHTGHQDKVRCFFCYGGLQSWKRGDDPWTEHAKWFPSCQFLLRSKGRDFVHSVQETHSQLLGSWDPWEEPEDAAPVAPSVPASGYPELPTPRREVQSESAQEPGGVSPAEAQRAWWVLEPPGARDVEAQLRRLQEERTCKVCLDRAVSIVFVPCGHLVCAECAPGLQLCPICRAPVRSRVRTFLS
Kind of data set: Fluorescence polarization assay. Format: binding. To be noted: SMAC-FITC probe, Ki calculated from IC50. A digest of the protocol:
as §2

Data set [1] relates to latently infected cell line Jurkat 2D10. The experiment in a line: HIV Jurkat 2D10 cells GFP+ assay (reversal of HIV latency). Format: cell-based. In short, it runs like this: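 Jurkat 2D10 cells exposed to graded doses of test compounds or IAP antagonists (BV-6, SM-164, Birinapant, LCL-161, GDC-0152, AT-406) for 48 hours. GFP expression quantified by flow cytometry. Induction expressed relative to baseline GFP in untreated cells.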

Data set [2] is described as follows: Pharmacokinetic study in mice, snapshot PK. Format: in vivo. To be noted: female, C57BL/6J, mouse, plasma, ip, one hour after i.p. injection of 10 mg/kg. In short, it runs like this: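 Female C57BL/6J mice dosed i.p. at 10 mg/kg in 5% DMSO/10% Tween-80/85% water. Plasma from retro-orbital blood at 1 h post-dose, acetonitrile-extracted with indometacin internal standard, parent compound quantified by LC-MS/MS.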

Where two headings read alike, the source gives them in different places. Some results are limits rather than exact numbers.

The values that follow come from patent US12678509B2, “Inhibitor of apoptosis (IAP) protein antagonists” (Sanford Burnham Prebys Medical Discovery Institute, priority 2019, dated 2026).

Usually IC50 stands for the concentration needed to halve the response being measured. As usually defined, the Ki is the dissociation constant of the complex between target and ligand, obtained from inhibition or displacement. In general, EC50 refers to the concentration at which the effect is half-maximal.

Sequence of BIR3 domain of cIAP2 (Q13489 238-349 limits assumed): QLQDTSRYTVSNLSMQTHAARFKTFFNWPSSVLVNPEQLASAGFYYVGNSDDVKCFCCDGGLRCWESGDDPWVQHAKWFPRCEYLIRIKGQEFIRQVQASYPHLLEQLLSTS
Sequence of BIR3 domain of cIAP1 (Q13490 253-363 limits assumed): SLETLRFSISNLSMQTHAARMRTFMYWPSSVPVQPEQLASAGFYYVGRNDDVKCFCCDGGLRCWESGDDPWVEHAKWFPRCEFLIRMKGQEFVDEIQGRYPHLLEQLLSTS

Regarding `CN[C@@H](C)C(=O)N[C@H]1CCS[C@H]2CC(C)(C)[C@@H](C(=O)N[C@H]3c4ccccc4C[C@H]3OCC#CC#CCO[C@@H]3Cc4ccccc4[C@@H]3NC(=O)[C@H]3N4C(=O)[C@@H](NC(=O)[C@H](C)NC)CCS[C@H]4CC3(C)C)N2C1=O` [Compound 18a, (2S)-1-{[(4S,7S,9aS)-74{(1S,2R)-2-[(6-{[(1S,2R)-1-({[(4S,7S,9aS)-8,8-Dimethyl-4-{[(2S)-2-(methylammonio)propanoyl]amino}-5-oxooctahydropyrrolo[2,1-b][1,3]thiazepin-7-yl]carbonyl}amino)-2,3-dihydro-1H-inden-2-yl]oxy}hexa-2,4-diyn-1-yl)oxy]-2,3-dihydro-1H-inden-1-yl}carbamoyl)-8,8-dimethyl-5-oxooctahydropyrrolo[2,1-b][1,3]thiazepinyl]amino}-N-methyl-1-oxopropan-2-ammonium dichloride], the IC50 was 0.1 to 1 µM in the data set on MDA-MB-231 (Homo sapiens, MDA-MB-231, 144 h, read-out: IC50 6 d); 0.1 to 1 µM in the data set with SW-1271 (Homo sapiens, SW1271, 144 h, read-out: IC50 6 d); below 0.01 µM in the data set on NB-4 (NB-4, 72 h, read-out: NB-4 Viability 72 h IC50); below 0.01 µM in the data set with NB-4 (NB-4, 144 h, read-out: IC50 6 d); below 0.01 µM with SKOV-3. In addition, the “Cell viability at max. concentration” value is given as “I (I<10%)” with MDA-MB-231 (MDA-MB-231, 6 d); “I (I<10%)” in the data set with SW-1271 (SW-1271, 6 d); “I (I<10%)” in the data set on NB-4 (NB-4, 6 d). For the same molecule, the Ki at BIR3 domain of XIAP was at most 0.05 µM; at BIR3 domain of cIAP1 it was at most 0.05 µM; at BIR3 domain of cIAP2, 0.05 to 0.1 µM; on ML-IAP, 0.05 to 0.1 µM. In addition, the EC50 in data set [1] (Homo sapiens, Jurkat, 48 h, read-out: Jurkat 2D10 GFP+ EC50) is 0.001 to 0.01 µM. In data set [1] (Jurkat 2D10, 48 hours, compared with BV-6, SM-164, Birinapant, LCL-161, GDC-0152, AT-406 (FIG. 1)), the “efficacy in activating the latently infected cell line” value was “higher efficacy in activating the latently infected cell line than many known compounds”. This molecule displayed a concentration at 1 h in data set [2] of 3.52 µM.
